# Experimental data reported in PMC9120017, “Inhibition mechanism of the chloride channel TMEM16A by the pore blocker 1PBC” (Nature Communications, 2022).
# Where two headings read alike, the source gives them in different places.
# Molecular target: T1, mouse TMEM16A mutant T539A (Mus musculus, UniProt Q8BHY3, T539A)
# T1 construct: expressed in transfected cells; host or cells: HEK293T
# T1 sequence (Q8BHY3 1-960 T539A): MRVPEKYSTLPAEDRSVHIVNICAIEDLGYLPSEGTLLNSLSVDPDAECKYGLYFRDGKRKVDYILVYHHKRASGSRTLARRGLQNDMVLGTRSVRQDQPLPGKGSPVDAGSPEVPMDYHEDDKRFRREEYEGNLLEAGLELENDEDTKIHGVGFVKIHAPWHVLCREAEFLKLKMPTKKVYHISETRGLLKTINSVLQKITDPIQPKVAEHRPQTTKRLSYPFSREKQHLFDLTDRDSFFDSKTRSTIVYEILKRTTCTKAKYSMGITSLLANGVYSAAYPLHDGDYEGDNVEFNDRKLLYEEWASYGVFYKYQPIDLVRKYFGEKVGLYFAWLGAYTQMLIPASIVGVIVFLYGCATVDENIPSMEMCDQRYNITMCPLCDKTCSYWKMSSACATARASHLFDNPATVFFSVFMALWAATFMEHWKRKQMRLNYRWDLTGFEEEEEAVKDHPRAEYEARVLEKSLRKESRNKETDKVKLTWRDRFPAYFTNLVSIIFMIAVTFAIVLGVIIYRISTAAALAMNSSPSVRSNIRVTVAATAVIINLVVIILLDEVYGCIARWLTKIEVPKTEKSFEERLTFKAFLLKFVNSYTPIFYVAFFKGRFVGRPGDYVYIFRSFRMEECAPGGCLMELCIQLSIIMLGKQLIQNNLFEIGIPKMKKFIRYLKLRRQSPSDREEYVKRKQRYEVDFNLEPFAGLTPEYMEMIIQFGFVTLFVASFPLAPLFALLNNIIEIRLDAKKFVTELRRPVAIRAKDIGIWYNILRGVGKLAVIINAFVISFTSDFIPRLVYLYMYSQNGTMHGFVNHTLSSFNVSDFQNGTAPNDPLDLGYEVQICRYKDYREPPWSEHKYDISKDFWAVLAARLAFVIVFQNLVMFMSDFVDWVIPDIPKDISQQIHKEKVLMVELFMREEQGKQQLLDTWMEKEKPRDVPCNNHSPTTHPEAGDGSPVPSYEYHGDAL
# Assay: Inside-out patch recording of 1PBC block, mutant T539A
# Type: cell-based
# Conditions: for remaining activity at 30 µM: 1PBC 30; for remaining activity at 30 µM / remaining activity at 100 µM: read-out: fraction of unblocked current; for remaining activity at 100 µM: 1PBC 100
# Procedure: HEK293T cells (ATCC CRL-1573) were maintained in Dulbecco’s modified Eagle’s medium (DMEM; Sigma-Aldrich) supplemented with 10 U ml^−1 penicillin, 0.1 mg ml^−1 streptomycin (Sigma-Aldrich), 2 mM L-glutamine (Sigma-Aldrich), and 10% FBS (Sigma-Aldrich) in a humidified atmosphere containing 5% CO2 at 37 °C. HEK293S GnTI^− cells (ATCC CRL-3022) were maintained in HyClone HyCell TransFx-H medium (GE Healthcare) supplemented with 10 U ml^−1 penicillin, 0.1 mg ml^−1 streptomycin, 4 mM L-glutamine, 0.15% poloxamer 188 (Sigma-Aldrich), and 1% FBS in an atmosphere containing 5% CO2 at 185 rpm at 37 °C. The ac splice variant of mouse TMEM16A (UniProt ID: Q8BHY3), mouse TMEM16B (UniProt ID: Q8CFW1), or mouse TMEM16F (UniProt ID: Q6P9J9) bearing a 3C cleavage site, a Venus YFP, a Myc tag, and a Streptavidin-binding peptide (SBP) downstream of the open reading frame in a modified pcDNA3.1 vector (Invitrogen) were used as described previously[21],[31]. Mutations were introduced using a modified QuikChange method[58] and were verified by sequencing.
# HEK293T cells were transfected with 3–4 μg DNA per 6 cm Petri dish using the calcium phosphate co-precipitation method and were used within 24–96 h after transfection. Recordings were performed on inside-out patches excised from HEK293T cells expressing the construct of interest. Patch pipettes were pulled from borosilicate glass capillaries (O.D. 1.5 mm, I.D. 0.86 mm, Sutter Instrument) and were fire-polished with a microforge (Narishige) before use. Pipette resistance was typically 3–8 MΩ when filled with the recording solutions detailed below. Seal resistance was typically 4 GΩ or higher. Voltage-clamp recordings were made using Axopatch 200B, Digidata 1550, and Clampex 10.7 (Molecular Devices). Analog signals were filtered with the in-built 4-pole Bessel filter at 10 kHz and were digitized at 20 kHz. Solution exchange was achieved using a gravity-fed system through a theta glass pipette mounted on an ultra-fast piezo-driven stepper (Siskiyou). […] All recordings were performed at 20 °C.
# A symmetrical ionic condition was used throughout. Stock solution with Ca^2+-EGTA contained 150 mM NaCl, 5.99 mM Ca(OH)2, 5 mM EGTA, and 10 mM HEPES at pH 7.40. Stock solution with EGTA contained 150 mM NaCl, 5 mM EGTA, and 10 mM HEPES at pH 7.40. Free Ca^2+ concentrations were adjusted by mixing the stock solutions at the required ratios calculated using the WEBMAXC program (http://web.stanford.edu/~cpatton/webmaxcS.htm). Patch pipettes were filled with the stock solution with Ca^2+-EGTA, which has a free Ca^2+ concentration of 1 mM. 1PBC (ChemBridge) stock was reconstituted in anhydrous DMSO (Sigma-Aldrich) at 100 mM and stored at −20 °C. Working solutions with 1PBC were prepared by serial dilution. Unless otherwise stated, experiments were performed at a saturating Ca^2+ concentration as shown in Supplementary Table 1 and the primary data were corrected for current rundown as described previously[21],[25].
# Concentration-response relations, obtained from the ratio of the I-V plots before and after the application of the blocker, were fitted to the Hill equation,1 I/Imax=1/1+IC50/[blocker]^h where I/Imax is the normalized current responses, IC50 defines the concentration at which inhibition is at its half-maximum, and h is the Hill coefficient.
structure (smiles),measurement,setting,value
N#Cc1c(C(F)(F)F)cc(O)n2c1nc1ccccc12 [1PBC],remaining activity at 30 µM,-60 mV,46.1%
same,remaining activity at 30 µM,-80 mV,49.4%
same,remaining activity at 30 µM,-100 mV,53.7%
same,remaining activity at 30 µM,-120 mV,55.9%
same,remaining activity at 30 µM,-140 mV,58.7%
same,remaining activity at 100 µM,0 mV,14.3%
same,remaining activity at 100 µM,20 mV,11.9%
same,remaining activity at 100 µM,40 mV,11.3%
same,remaining activity at 100 µM,60 mV,10%
same,remaining activity at 100 µM,80 mV,8.95%
same,remaining activity at 100 µM,100 mV,7.58%
same,remaining activity at 100 µM,120 mV,8.07%
same,remaining activity at 100 µM,140 mV,8.23%
same,remaining activity at 100 µM,-20 mV,16.6%
same,remaining activity at 100 µM,-40 mV,18.5%
same,remaining activity at 100 µM,-60 mV,21.3%
same,remaining activity at 100 µM,-80 mV,25%
same,remaining activity at 100 µM,-100 mV,28.2%
same,remaining activity at 100 µM,-120 mV,30.6%
same,remaining activity at 100 µM,-140 mV,34%
same,IC50,"20 mV, 2 µM Ca2+",12.9 µM
same,IC50,"40 mV, 2 µM Ca2+",11 µM
same,IC50,"60 mV, 2 µM Ca2+",9.86 µM
same,log-fold IC50 (change of mutant vs WT),80 mV,0.6239
same,IC50,"80 mV, 2 µM Ca2+",9.02 µM
same,IC50,"100 mV, 2 µM Ca2+",8.74 µM
same,IC50,"120 mV, 2 µM Ca2+",8.83 µM
same,IC50,"140 mV, 2 µM Ca2+",9.45 µM
same,IC50,"-20 mV, 2 µM Ca2+",17.3 µM
same,IC50,"-40 mV, 2 µM Ca2+",20.5 µM
same,IC50,"-60 mV, 2 µM Ca2+",24.4 µM
same,IC50,"-80 mV, 2 µM Ca2+",28.9 µM
same,IC50,"-100 mV, 2 µM Ca2+",34.3 µM
same,IC50,"-120 mV, 2 µM Ca2+",38.6 µM
same,IC50,"-140 mV, 2 µM Ca2+",44.4 µM
same,IC50,"T539A, V 0 mV",14.9 µM
same,IC50,"T539A, V 20 mV",12.9 µM
same,IC50,"T539A, V 40 mV",11 µM
same,IC50,"T539A, V 60 mV",9.86 µM
same,IC50,"T539A, V 80 mV",9.02 µM
same,IC50,"T539A, V 100 mV",8.74 µM
same,IC50,"T539A, V 120 mV",8.83 µM
same,IC50,"T539A, V 140 mV",9.45 µM
same,IC50,"T539A, V -20 mV",17.3 µM
same,IC50,"T539A, V -40 mV",20.5 µM
same,IC50,"T539A, V -60 mV",24.4 µM
same,IC50,"T539A, V -80 mV",28.9 µM
same,IC50,"T539A, V -100 mV",34.3 µM
same,IC50,"T539A, V -120 mV",38.6 µM
same,IC50,"T539A, V -140 mV",44.4 µM
